Values after ≈ are worked out from the molar mass of the structure shown.

For series [1], the system named is Staphylococcus aureus strain Cowan I. Nature of the series: Inhibition zones of bacterial growth in bacteria agar around antibiotic loaded HA coated plates. The conditions noted are these: loading 15 minutes to 24 hours; release in PBS 15 minutes to 24 hours before agar; incubated 37°C 18 hours. It is filed as cell-based. The protocol:
The incorporation of antibiotics was preformed by soaking the HA coated plates in 10 ml PBS containing 50 µg of either Tobramycin, Cephalotin, Amoxicillin or Gentamicin sulfate (Sigma-Aldrich Company Ltd.). The drug loading was performed at room temperature in 50 ml conical test tubes for four different soaking times between 15 minutes and 24 hours.
After incorporation of antibiotics, the plates were immediately transferred to new tubes filled with 40 ml of PBS preheated to 37°C in order to let the incorporated drug leak out for various time intervals before monitoring the antibacterial effect of the drug remaining in the coatings. After either 15 minutes, 60 minutes or 24 hours, the plates were removed and dried at room temperature for further analysis of the remaining antibacterial effect in the Staphylococcus aureus agar described below.
A Mueller-Hinton broth (Merck) containing 0.8% Agar was prepared by dissolving the powder in de-ionized water and sterilized by autoclaving at 121°C for 20 minutes. The broth was then tempered to 40°C in a water bath. Staphylococcus aureus strain Cowan I (NCTC 8530, National Collection of Type Cultures, London, UK) in a PBS suspension was added directly to the broth giving it a final optical density at 600 nm of 0.005 (corresponding to approximately 5x10^6 cfu/ml). The mixture was mixed to homogenously distribute the bacteria in the substrate and then transferred to Petri dishes. The dishes were filled to a depth of 10 mm (50 ml) with the bacterial broth. As the agar stiffened at room temperature, the titanium plates were stuck down in the agar at a right angle to the surface, having both sides in contact with the bacterial substrate. The Petri dishes were then incubated at 37°C for 18 hours. A HA coated reference plate without any antibiotics was also tested. The inhibition zones of bacterial growth formed around the plates were photographed by an imaging instrument (Geldoc 2000, Bio-Rad).

Series [2] is classed as physicochemical. The following applies: for anticipated release time: assuming constant release rate until coatings are emptied, including the 22 hours of release before hydrochloric acid treatment; for drug release rate: from HA coating in PBS at room temperature, between 2 and 22 hours after start; for duration of initial rapid drug release (burst): from HA coatings, loading times 15 minutes, 1 hour, 24 hours. On the procedure:
The drug loading was performed at room temperature in 50 ml conical test tubes for four different soaking times between 15 minutes and 24 hours. […] The liquid was circulated through a cell in which the drug concentration was detected. After the release in PBS, the HA coatings soaked for 24 hours in the antibiotic solutions were dissolved by lowering the pH of the PBS to 2 by addition of hydrochloric acid. This was done to release and measure the amount of remaining drugs still present in the coatings after 22 hours of release. To relate the antibiotics concentration released to the antibacterial effect, antimicrobial susceptibility tests (E-test, AB Biodisk, Sweden) for Amoxicillin and Cephalothin was performed on strain S aureus Cowan I and on Staphylococcus epidermidis Kx293A1 (Department of Microbiology, Swedish University of Agricultural Sciences).

In a further series the test system is S aureus Cowan I. Briefly: E-test antimicrobial susceptibility test (MIC). It is filed as cell-based. The following applies: Staphylococcus aureus, inhibiting bacteria in 1 ml broth. The protocol: (§1) The drug release rate was analyzed using UV spectroscopy (Shimadzu 1650PC, Shimadzu Corp.) by immersing plates that had been soaked in Amoxicillin and Cephalothin for 15 minutes, 1 hour and 24 hours in 8.2 ml of either water or PBS at room temperature. The release was measured (using a wavelength Of 230 nm for Amoxicillin and 239 nm for Cephalothin) in water for 1 hour to investigate the initial release and then in PBS for 22 hours to investigate the slow release after the initial burst. The liquid was circulated through a cell in which the drug concentration was detected. After the release in PBS, the HA coatings soaked for 24 hours in the antibiotic solutions were dissolved by lowering the pH of the PBS to 2 by addition of hydrochloric acid. This was done to release and measure the amount of remaining drugs still present in the coatings after 22 hours of release. To relate the antibiotics concentration released to the antibacterial effect, antimicrobial susceptibility tests (E-test, AB Biodisk, Sweden) for Amoxicillin and Cephalothin was performed on strain S aureus Cowan I and on Staphylococcus epidermidis Kx293A1 (Department of Microbiology, Swedish University of Agricultural Sciences).
(§2) Table 1 presents the concentration of Amoxicillin and Cephalothin that has to be present to ensure killing of S. aureus and S. epidermidis, as divulged from the antimicrobial susceptibility tests. Table 1: Result from E-test for antimicrobial susceptibility testing, determining the minimum inhibitory concentration (MIC) of antimicrobial agents against microorganisms (inhibiting bacteria in 1 ml broth).

In series [3] the test system is Staphylococcus epidermidis Kx293A1. Briefly: E-test antimicrobial susceptibility test (MIC). It is filed as cell-based. The following applies: inhibiting bacteria in 1 ml broth. On the procedure: as §1, §2
A short description of series [4]: Release and content of Amoxicillin from HA coatings loaded with pamidronate and Amoxicillin (methods of Examples 8 and 9). It is filed as physicochemical.

`CC1(C)S[C@@H]2[C@H](NC(=O)[C@H](N)c3ccc(O)cc3)C(=O)N2[C@H]1C(=O)O` [Amoxicillin]: the “antibacterial effect (inhibition zone, clear agar closest to the plates)” value in series [1] was “the antibiotic effect was preserved”. Besides, in series [2], the anticipated release time is 27 h, the drug release rate amounted to 0.42±0.10 µg/h·cm^2 and the “duration of initial rapid drug release (burst)” value was “less than 10 minutes”. Besides, the lowest concentration to inhibit growth in the series with S aureus Cowan I (MIC) was 0.064 µg/mL (≈ 0.175 µM). Moreover, the minimum inhibitory concentration (MIC) (usually the smallest concentration in the dilution series that meets the test's criterion for growth inhibition) in series [3] amounted to 0.19 µg/mL (≈ 0.52 µM). In addition, the “time for which a therapeutically significant dose of amoxicillin was released” value in series [4] (Example 10: co-loading, 10 ml PBS, 6 mg pamidronate disodium salt hydrate, 100 µg Amoxicillin, 50 °C, 25 minutes, rinsed 5 minutes in PBS) was found to be 7 days. Moreover, in series [4] (Example 11: sequential loading, 7 mg pamidronate 40°C 12 minutes, then 70 µg Amoxicillin 40°C 15 minutes, soaked in PBS 7 minutes), the “time for which a therapeutically significant dose of amoxicillin was released” value turned out to be 6 days.

As to `CC(=O)OCC1=C(C(=O)O)N2C(=O)[C@@H](NC(=O)Cc3cccs3)[C@H]2SC1` [Cephalothin], the “antibacterial effect (inhibition zone, clear agar closest to the plates)” value in series [1] is “the antibiotic effect was preserved”. For the same molecule, in series [2], the anticipated release time came to 63 h, the drug release rate was 0.22±0.06 µg/h·cm^2 and the “duration of initial rapid drug release (burst)” value is “less than 10 minutes”. In addition, the “amount of antibiotics remaining in the coating after 22 hours of release” value in series [2] (buffer) is ~ 18 µg. For the same molecule, in the series with S aureus Cowan I, it took 0.064 µg/mL (≈ 0.161 µM) to inhibit growth (MIC). For the same molecule, in series [3], inhibition of growth (MIC) required 0.064 µg/mL (≈ 0.161 µM).

For the molecule `NC[C@H]1O[C@H](O[C@H]2[C@H](O)[C@@H](O[C@H]3O[C@H](CO)[C@@H](O)[C@H](N)[C@H]3O)[C@H](N)C[C@@H]2N)[C@H](N)C[C@@H]1O` [Tobramycin], in series [1], the “antibacterial effect (inhibition zone, clear agar closest to the plates)” value was “the antibiotic effect was preserved”.

As to Gentamicin sulfate, the “antibacterial effect (inhibition zone, clear agar closest to the plates)” value in series [1] is “the antibiotic effect was preserved”.

Source of the values: EP2249889B1, “CRYSTALLINE SURGICAL IMPLANT COMPOSITE MATERIALS AND KITS AND METHODS OF MANUFACTURE” (Sandvik Intellectual Property AB, priority 2008, dated 2009).
